Measured values from patent US12692254B2, “Benzimidazole inhibitors of PAD enzymes” (BRISTOL-MYERS SQUIBB COMPANY, priority 2018, dated 2026).

What follows are molecules tested against human PAD4 (hPAD4) (Homo sapiens, UniProt Q9UM07) (assay: RFMS human PAD4 functional assay (rapid-fire mass spectrum)). Settings: 5 nM hPAD4 enzyme, 250 μM BAEE, 50 μM Calcium; 30 min preincubation, 90 min reaction at 37° C.
Format: biochemical
How it was run: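 PAD4 (10 nM) preincubated 30 min with compound (top final 50 μM), then BAEE substrate added in pH 7.5 HEPES buffer with DTT, 50 μM calcium, TPEN; 90 min at 37° C. After TCA quench, citrulline derivatized with phenyl glyoxal (4 mM final, 30 min, 37° C) and quantified by RapidFire MS against internal standard.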

Chain of human PAD4 (hPAD4) (Q9UM07 whole entry): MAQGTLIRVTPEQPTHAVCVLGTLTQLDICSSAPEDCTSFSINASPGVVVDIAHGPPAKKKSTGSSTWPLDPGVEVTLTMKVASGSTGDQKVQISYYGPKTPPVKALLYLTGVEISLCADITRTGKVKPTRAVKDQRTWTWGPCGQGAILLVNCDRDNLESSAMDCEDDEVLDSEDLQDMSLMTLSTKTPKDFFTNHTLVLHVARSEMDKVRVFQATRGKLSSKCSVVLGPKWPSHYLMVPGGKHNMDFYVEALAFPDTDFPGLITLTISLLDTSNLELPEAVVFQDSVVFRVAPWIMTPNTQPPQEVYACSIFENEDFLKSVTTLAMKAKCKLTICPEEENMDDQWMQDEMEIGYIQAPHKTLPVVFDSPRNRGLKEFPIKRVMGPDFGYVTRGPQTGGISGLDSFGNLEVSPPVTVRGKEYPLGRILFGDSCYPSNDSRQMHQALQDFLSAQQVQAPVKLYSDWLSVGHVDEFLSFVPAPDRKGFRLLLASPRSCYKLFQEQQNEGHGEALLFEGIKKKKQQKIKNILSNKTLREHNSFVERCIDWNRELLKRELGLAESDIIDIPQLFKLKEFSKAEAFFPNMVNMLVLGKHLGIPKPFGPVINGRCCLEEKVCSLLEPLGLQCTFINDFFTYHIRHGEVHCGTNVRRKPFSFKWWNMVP

SMILES	IC50 [nM]
COc1cc(C(=O)N2C[C@H]3CC[C@@H]2[C@@H]3N)cc2nc(-c3cc4ccccc4n3C)n(CC3CN(c4cncnc4C#N)C3)c12 [Example 44, 5-[3-({5-[(1R,4R,7R)-7-amino-2-azabicyclo[2.2.1]heptane-2-carbonyl]-7-methoxy-2-(1-methyl-1H-indol-2-yl)-1H-1,3-benzodiazol-1-yl}methyl)azetidin-1-yl]pyrimidine-4-carbonitrile]	112
COc1cc(C(=O)N2C[C@H]3CC[C@@H]2[C@@H]3N)cc2nc(-c3cc4ccc(Cl)cc4n3C)n(CC3CN(c4ccnc(C)n4)C3)c12 [Example 45, (1R,4R,7R)-2-[2-(6-chloro-1-methyl-1H-indol-2-yl)-7-methoxy-1-{[1-(2-methylpyrimidin-4-yl)azetidin-3-yl]methyl}-1H-1,3-benzodiazole-5-carbonyl]-2-azabicyclo[2.2.1]heptan-7-amine]	114
COc1cc(C(=O)N2C[C@H]3CC[C@@H]2[C@@H]3N)cc2nc(-c3cc4ccccc4n3C)n(CC3CN(c4ncccn4)C3)c12 [Example 48, (1R,4R,7R)-2-[7-methoxy-2-(1-methyl-1H-indol-2-yl)-1-{[1-(pyrimidin-2-yl)azetidin-3-yl]methyl}-1H-1,3-benzodiazole-5-carbonyl]-2-azabicyclo[2.2.1]heptan-7-amine]	122
COc1cc(C(=O)N2C[C@H]3CC[C@@H]2[C@@H]3N)cc2nc(-c3cc4ccc(Cl)cc4n3CC3CC3)n(CC3CN(c4ccnc(C5CC5)n4)C3)c12 [Example 53, (1R,4R,7R)-2-{2-[6-chloro-1-(cyclopropylmethyl)-1H-indol-2-yl]-1-{[1-(2-cyclopropylpyrimidin-4-yl)azetidin-3-yl]methyl}-7-methoxy-1H-1,3-benzodiazole-5-carbonyl}-2-azabicyclo[2.2.1]heptan-7-amine]	157
COc1cc(C(=O)N2C[C@H]3CC[C@@H]2[C@@H]3N)cc2nc(-c3cc4cc(Cl)ccc4n3C)n(CC3CN(c4cncc(C#N)c4)C3)c12 [Example 58, 5-[3-({5-[(1R,4R,7R)-7-amino-2-azabicyclo[2.2.1]heptane-2-carbonyl]-2-(5-chloro-1-methyl-1H-indol-2-yl)-7-methoxy-1H-1,3-benzodiazol-1-yl}methyl)azetidin-1-yl]pyridine-3-carbonitrile]	169
COc1cc(C(=O)N2C[C@H]3CC[C@@H]2[C@@H]3N)cc2nc(-c3cc4cc(Cl)ccc4n3C)n(CC3CN(c4cncc(C#N)n4)C3)c12 [Example 59, 6-[3-({5-[(1R,4R,7R)-7-amino-2-azabicyclo[2.2.1]heptane-2-carbonyl]-2-(5-chloro-1-methyl-1H-indol-2-yl)-7-methoxy-1H-1,3-benzodiazol-1-yl}methyl)azetidin-1-yl]pyrazine-2-carbonitrile]	171
COc1cc(C(=O)N2C[C@H]3CC[C@@H]2[C@@H]3N)cc2nc(-c3cc4cc(Cl)ccc4n3C)n(CC3CN(c4ccnc(C)n4)C3)c12 [Example 61, (1R,4R,7R)-2-[2-(5-chloro-1-methyl-1H-indol-2-yl)-7-methoxy-1-{[1-(2-methylpyrimidin-4-yl)azetidin-3-yl]methyl}-1H-1,3-benzodiazole-5-carbonyl]-2-azabicyclo[2.2.1]heptan-7-amine]	187
COc1cc(C(=O)N2C[C@H]3CC[C@@H]2[C@@H]3N)cc2nc(-c3cc4cc(Cl)ccc4n3C)n(CC3CN(c4ncccn4)C3)c12 [Example 62, (1R,4R,7R)-2-[2-(5-chloro-1-methyl-1H-indol-2-yl)-7-methoxy-1-{[1-(pyrimidin-2-yl)azetidin-3-yl]methyl}-1H-1,3-benzodiazole-5-carbonyl]-2-azabicyclo[2.2.1]heptan-7-amine]	192

Now from value to molecule:

IC50 [nM]	SMILES
103	COc1nccnc1N1CC(Cn2c(-c3cc4cccnc4n3CC3CC3)nc3cc(C(=O)N4C[C@H]5CC[C@@H]4[C@@H]5N)cc(OC)c32)C1 [Example 43, (1R,4R,7R)-2-{2-[1-(cyclopropylmethyl)-1H-pyrrolo[2,3-b]pyridin-2-yl]-7-methoxy-1-{[1-(3-methoxypyrazin-2-yl)azetidin-3-yl]methyl}-1H-1,3-benzodiazole-5-carbonyl}-2-azabicyclo[2.2.1]heptan-7-amine]
118	COc1cc(C(=O)N2C[C@H]3CC[C@@H]2[C@@H]3N)cc2nc(-c3cc4cccnc4n3CC3CC3)n(CC3CN(c4cncnc4C#N)C3)c12 [Example 46, 5-[3-({5-[(1R,4R,7R)-7-amino-2-azabicyclo[2.2.1]heptane-2-carbonyl]-2-[1-(cyclopropylmethyl)-1H-pyrrolo[2,3-b]pyridin-2-yl]-7-methoxy-1H-1,3-benzodiazol-1-yl}methyl)azetidin-1-yl]pyrimidine-4-carbonitrile]
119	COc1cc(C(=O)N2C[C@H]3CC[C@@H]2[C@@H]3N)cc2nc(-c3cc4cccnc4n3CC3CC3)n(CC3CN(c4nccs4)C3)c12 [Example 47, (1R,4R,7R)-2-{2-[1-(cyclopropylmethyl)-1H-pyrrolo[2,3-b]pyridin-2-yl]-7-methoxy-1-{[1-(1,3-thiazol-2-yl)azetidin-3-yl]methyl}-1H-1,3-benzodiazole-5-carbonyl}-2-azabicyclo[2.2.1]heptan-7-amine]
126	COc1cc(N2CC(Cn3c(-c4cc5cccnc5n4CC4CC4)nc4cc(C(=O)N5C[C@H]6CC[C@@H]5[C@@H]6N)cc(OC)c43)C2)ccn1 [Example 49, (1R,4R,7R)-2-{2-[1-(cyclopropylmethyl)-1H-pyrrolo[2,3-b]pyridin-2-yl]-7-methoxy-1-{[1-(2-methoxypyridin-4-yl)azetidin-3-yl]methyl}-1H-1,3-benzodiazole-5-carbonyl}-2-azabicyclo[2.2.1]heptan-7-amine]
141	COc1cc(C(=O)N2C[C@H]3CC[C@@H]2[C@@H]3N)cc2nc(-c3cc4cccnc4n3CC3CC3)n(CC3CN(c4ccccc4)C3)c12 [Example 50, (1R,4R,7R)-2-{2-[1-(cyclopropylmethyl)-1H-pyrrolo[2,3-b]pyridin-2-yl]-7-methoxy-1-[(1-phenylazetidin-3-yl)methyl]-1H-1,3-benzodiazole-5-carbonyl}-2-azabicyclo[2.2.1]heptan-7-amine]
152	COc1cc(C(=O)N2C[C@H]3CC[C@@H]2[C@@H]3N)cc2nc(-c3cc4cccnc4n3CC3CC3)n(CC3CN(c4ccnc(C)c4)C3)c12 [Example 51, (1R,4R,7R)-2-{2-[1-(cyclopropylmethyl)-1H-pyrrolo[2,3-b]pyridin-2-yl]-7-methoxy-1-{[1-(2-methylpyridin-4-yl)azetidin-3-yl]methyl}-1H-1,3-benzodiazole-5-carbonyl}-2-azabicyclo[2.2.1]heptan-7-amine]
156	COc1cc(C(=O)N2C[C@H]3CC[C@@H]2[C@@H]3N)cc2nc(-c3cc4cccnc4n3CC3CC3)n(CC3CN(c4cncnc4C#N)C3)c12 [Example 52, 5-[3-({5-[(1R,4R,7R)-7-amino-2-azabicyclo[2.2.1]heptane-2-carbonyl]-2-[1-(cyclopropylmethyl)-1H-pyrrolo[2,3-b]pyridin-2-yl]-7-methoxy-1H-1,3-benzodiazol-1-yl}methyl)azetidin-1-yl]pyrimidine-4-carbonitrile]
162	COc1ccc2cc(-c3nc4cc(C(=O)N5C[C@H]6CC[C@@H]5[C@@H]6N)cc(OC)c4n3CC3CN(c4cccc(C#N)n4)C3)n(CC3CC3)c2n1 [Example 54, 6-[3-({5-[(1R,4R,7R)-7-amino-2-azabicyclo[2.2.1]heptane-2-carbonyl]-2-[1-(cyclopropylmethyl)-6-methoxy-1H-pyrrolo[2,3-b]pyridin-2-yl]-7-methoxy-1H-1,3-benzodiazol-1-yl}methyl)azetidin-1-yl]pyridine-2-carbonitrile]
163	COc1cc(C(=O)N2C[C@H]3CC[C@@H]2[C@@H]3N)cc2nc(-c3cc4cccnc4n3CC3CC3)n(CC3CN(c4cccc5c4CNC5=O)C3)c12 [Example 55, 4-[3-({5-[(1R,4R,7R)-7-amino-2-azabicyclo[2.2.1]heptane-2-carbonyl]-2-[1-(cyclopropylmethyl)-1H-pyrrolo[2,3-b]pyridin-2-yl]-7-methoxy-1H-1,3-benzodiazol-1-yl}methyl)azetidin-1-yl]-2,3-dihydro-1H-isoindol-1-one]
166	COc1cc(C(=O)N2C[C@H]3CC[C@@H]2[C@@H]3N)cc2nc(-c3cc4cccnc4n3CC3CC3)n(CC3CN(c4nnc(C)o4)C3)c12 [Example 56, (1R,4R,7R)-2-{2-[1-(cyclopropylmethyl)-1H-pyrrolo[2,3-b]pyridin-2-yl]-7-methoxy-1-{[1-(5-methyl-1,3,4-oxadiazol-2-yl)azetidin-3-yl]methyl}-1H-1,3-benzodiazole-5-carbonyl}-2-azabicyclo[2.2.1]heptan-7-amine]
168	COc1cc(C(=O)N2C[C@H]3CC[C@@H]2[C@@H]3N)cc2nc(-c3cc4cccnc4n3CC3CC3)n(CC3CN(c4ccncc4)C3)c12 [Example 57, (1R,4R,7R)-2-{2-[1-(cyclopropylmethyl)-1H-pyrrolo[2,3-b]pyridin-2-yl]-7-methoxy-1-{[1-(pyridin-4-yl)azetidin-3-yl]methyl}-1H-1,3-benzodiazole-5-carbonyl}-2-azabicyclo[2.2.1]heptan-7-amine]
171	COc1cc(C(=O)N2C[C@H]3CC[C@@H]2[C@@H]3N)cc2nc(-c3cc4cccnc4n3C)n(CC3CN(c4cncnc4C#N)C3)c12 [Example 60, 5-[3-({5-[(1R,4R,7R)-7-amino-2-azabicyclo[2.2.1]heptane-2-carbonyl]-7-methoxy-2-{1-methyl-1H-pyrrolo[2,3-b]pyridin-2-yl}-1H-1,3-benzodiazol-1-yl}methyl)azetidin-1-yl]pyrimidine-4-carbonitrile]
199	COc1cc(C(=O)N2C[C@H]3CC[C@@H]2[C@@H]3N)cc2nc(-c3cc4cccnc4n3CC3CC3)n(CC3CN(c4cncc(C)n4)C3)c12 [Example 63, (1R,4R,7R)-2-{2-[1-(cyclopropylmethyl)-1H-pyrrolo[2,3-b]pyridin-2-yl]-7-methoxy-1-{[1-(6-methylpyrazin-2-yl)azetidin-3-yl]methyl}-1H-1,3-benzodiazole-5-carbonyl}-2-azabicyclo[2.2.1]heptan-7-amine]
